From US5849759A, “Naphthyl-substituted benzimidazole derivatives as anti-coagulants” (Berlex Laboratories, Inc., priority 1995, dated 1998)
Where a SMILES comes first, the peptide text is derived from it. [ ]: non-standard residue; d: D form. The star is where a group is joined. pNA = O=[N+]([O-])c1ccc(N*)cc1

Experiments:
[1] = molecular target: T1, Human tissue plasminogen activator (tPA) (Two chains, Sigma) (Homo sapiens, UniProt P00750); assay: In vitro chromogenic assay for tissue plasminogen activator; assay type: biochemical; details: substrate concentration stated equal to Km under present assay conditions; pH 7.5, ambient temperature; read-out: Km (S2288)
T1 construct: purchased Sigma
T1 sequence (P00750 311-562 limits assumed): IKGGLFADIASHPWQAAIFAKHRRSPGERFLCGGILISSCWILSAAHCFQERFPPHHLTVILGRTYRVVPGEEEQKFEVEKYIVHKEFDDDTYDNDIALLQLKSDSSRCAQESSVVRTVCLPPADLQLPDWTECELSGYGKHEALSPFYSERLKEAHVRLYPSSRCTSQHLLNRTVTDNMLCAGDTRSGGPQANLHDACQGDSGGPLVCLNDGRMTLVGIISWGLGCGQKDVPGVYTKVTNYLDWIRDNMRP
T1 sequence (P00750 36-310 partner limits assumed): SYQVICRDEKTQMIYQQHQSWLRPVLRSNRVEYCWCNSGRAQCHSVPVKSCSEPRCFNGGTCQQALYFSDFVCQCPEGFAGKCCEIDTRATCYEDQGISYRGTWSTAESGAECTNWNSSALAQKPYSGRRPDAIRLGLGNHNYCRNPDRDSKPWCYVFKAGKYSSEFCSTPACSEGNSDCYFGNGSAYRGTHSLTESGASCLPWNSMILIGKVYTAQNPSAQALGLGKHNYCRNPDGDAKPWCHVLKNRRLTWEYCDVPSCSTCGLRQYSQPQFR
Protocol: (§1) The activities were determined as an initial rate of cleavage of the peptide p-nitroanilide by the enzyme. The cleavage product, p-nitroaniline, absorbs at 405 nm with a molar extinction coefficient of 9920M^-1 cm^-1.
(§2) 50 mM TrisHCl, 150 mM NaCl, 2.5 mM CaCl2, and 0.1% polyethylene glycol 6000, pH 7.5.
3. Human tissue plasminogen activator (tPA) (Two chains, Sigma) stock solution: 1 mg/mL, stored at -80° C. (working solution (2X): 1361 ng/mL in assay buffer, prepare prior to use).
3. S2288 (tPA assay) stock solution: 10 mM in dH2 O, stored at 4° C. (working solution (4X): 1484 μM in assay buffer). (All substrate working solutions were prepared on assay day […].)
Assays were performed in 96-well microtiter plates in a total volume of 200 μl. […] Concentrations of the standard inhibitor compound in the assay were from 5 μM to 0.021 μM in 1 to 3 dilution. Concentration of the test compounds in the assay typically were from 10 μM to 0.041 μM in 1 to 3 dilution. […]
(§3) The enzyme kinetics were measured at 405 nm, at 10 seconds interval, for five minutes in a THERMOmax plate reader at ambient temperature.
(§4) Enzyme rates were calculated as mOD/min based on the first two minutes readings. The IC50 values were determined by fitting the data to the log-logit equation (linear) or the Morrison equation (non-linear) with an EXCEL spread-sheet. […]

[2] = molecular target: T2, Human thrombin (factor IIa) (Homo sapiens, UniProt P00734); assay: In vitro chromogenic assay for thrombin; assay type: biochemical; details: substrate concentration stated equal to Km under present assay conditions; pH 7.5, ambient temperature; read-out: Km (S2302)
T2 construct: Human thrombin stock solution; purchased Enzyme Research Lab
Protocol: as §1, §2
2. Human thrombin stock solution: Stored at -80° C. (working solution (2X): 1200 ng/mL or 40 nM in assay buffer, prepare prior to use).
2. S2302 (Thrombin assay) stock solution: 10 mM in dH2 O, stored at 4° C. (working solution (4X): 1200 μM in assay buffer).
Assays were performed in 96-well microtiter plates in a total volume of 200 μl. […] Concentrations of the standard inhibitor compound in the assay were from 5 μM to 0.021 μM in 1 to 3 dilution. Concentration of the test compounds in the assay typically were from 10 μM to 0.041 μM in 1 to 3 dilution. For potent test compounds, the concentrations used in the factor Xa assay were further diluted 100 fold (100 nM to 0.41 nM) or 1000 fold (10 nM to 0.041 nM). […]
as §3, §4

Row | Compound | Km [1] [µM] | Km [2] [µM]
1 | CC[C@@H](C)[C@@H](N)C(=O)N1CCC[C@H]1C(=O)N[C@@H](CCCN=C(N)N)C(=O)Nc1ccc([N+](=O)[O-])cc1 [S2288] (H-[dI]-Pro-Arg-pNA) | 371 | 
2 | N=C(N)NCCC[C@H](NC(=O)[C@H](Cc1ccccc1)NC(=O)[C@H]1CCCN1)C(=O)Nc1ccc([N+](=O)[O-])cc1 [S2302] (H-[dP]-Phe-Arg-pNA) |  | 300
